Where two headings read alike, the source gives them in different places.
Legend:
Recombinant IDO1 = target: T1, Recombinant IDO1 (Homo sapiens, UniProt P14902); test: IDO1 enzymatic assay; type: biochemical; conditions: 50 nM IDO1, 1.3 mM D-tryptophan, read-out: Enzyme IC50 (nM) IDO1
T1 construct: His tag (N); made in house; host or cells: E. coli
Protocol: Recombinant IDO1 was overexpressed and purified from E. coli cells with an N-terminal His tag. IDO1 enzymatic assay was carried out using a methodology similar to described in the literature (J. Biol. Chem. (1980), 255, 1339-1345.). The reaction mixture contains 50 nM IDO1, 1.3 mM D-tryptophan, 5 mM L-ascorbic acid, 6.25 μM methylene Blue, 0.4 mg/mL catalase and compound (or DMSO) in a buffer containing 50 mM potassium phosphate pH 7.5 and 0.1% BSA. After incubation at 24° C. for 1.5 hours, absorbance of the reaction mixture was continuously read at 321 nm to monitor the formation of N′-formylkynurenine by a FULOstar OMEGA plate reader (BMG LABTECH) for 1 hour. The enzymatic activity was determined by measuring the slope of the linear absorbance increase as a function of time. The IC50s are calculated based on remaining enzyme activity in the presence of increasing concentrations of compounds.

[1] = target: T2, cellular IDO1 in HeLa cells (Homo sapiens, UniProt P14902); test: HeLa cell-based IDO1 Kyn (kynurenine) production assay; conditions: IFN-γ 100 ng/mL, 48 hours
T2 construct: endogenous in cells; host or cells: HeLa cells (American Type Tissue Culture Collection), induced with human recombinant IFN-γ
T2 sequence (P14902 whole entry): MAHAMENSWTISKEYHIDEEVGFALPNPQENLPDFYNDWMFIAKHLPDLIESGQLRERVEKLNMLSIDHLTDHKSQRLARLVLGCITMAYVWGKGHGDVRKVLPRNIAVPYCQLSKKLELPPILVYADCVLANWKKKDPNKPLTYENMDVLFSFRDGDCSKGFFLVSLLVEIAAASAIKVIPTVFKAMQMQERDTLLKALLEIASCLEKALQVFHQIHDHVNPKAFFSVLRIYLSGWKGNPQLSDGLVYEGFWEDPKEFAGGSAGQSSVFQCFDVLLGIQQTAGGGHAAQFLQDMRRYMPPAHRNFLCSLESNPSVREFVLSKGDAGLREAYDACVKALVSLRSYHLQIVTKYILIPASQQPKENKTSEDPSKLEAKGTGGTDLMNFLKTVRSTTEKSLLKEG
Protocol: HeLa Cell-Based IDO1 Kyn (Kynurenine) Production Assay:
The inhibitory activity of IDO1 inhibitors is determined by using a colorimetric reaction to measure Kyn generated from L-Trp (L-Tryptophon) oxidation by cellular IDO1 in HeLa cells after induction of IDO1 by IFN-γ.
Hela cells were obtained from the American Type Tissue Culture Collection and recovered in 10% FBS-containing phenol red-free DMEM medium supplemented with 0.4 mM L-Trp. Cells were plated onto a 96-well plate (100 μl/well) at 8000 cells per well. Human recombinant IFN-γ (8901SC, CST) was added to cells (final concentration 100 ng/mL) to stimulate endogenous IDO1. Compounds at different concentrations diluted in dimethylsulfoxide (DMSO) were added simultaneously with IFN-γ. Cells were kept at 37° C. in a humidified incubator supplied with 5% CO2. After 48 hours of incubation, 100 μl supernatant from each well was removed to a new plate. The protein in the medium was precipitated with the addition of 8 μl 6N trichloroacetic acid. The plate was incubated at 60° C. for 45 min and then centrifugation at 2500 rpm for 10 min to remove sediments. 80 μl supernatants were carefully removed to a new clean plate and added with an equal volume of 2% 4-(Dimethylamino) benzaldehyde (D2004, sigma) dissolved in glacial acetic acid. The absorbance at 480 nm wavelength derived from Kyn was measured using a FULOstar OMEGA plate reader (BMG LABTECH). The IC50 for each compound was derived from fitting the dose-response data to the four-parameter logistic model by using Graphpad Prism software.

[2] = Table 2, 8-substituted imidazo[1,5-a]pyridines
[3] = Table 1, 5-substituted imidazo[1,5-a]pyridines

T1 sequence (P14902 whole entry): as above

| IC50 (Recombinant IDO1; [2]) | EC50 [1, 2] | IC50 (Recombinant IDO1; [3]) | EC50 [1, 3] | SMILES |
| --- | --- | --- | --- | --- |
| 210 nM | 719 nM |  |  | CC(C)c1ccn2cncc2c1C(O)[C@H]1CC[C@H](O)CC1 (single isomer, unassigned) [Example B121a, (trans)-4-(Hydroxy(7-isopropylimidazo[1,5-a]pyridin-8-yl)methyl) cyclohexan-1-ol] |
| 21000 nM | > 10000 nM |  |  | CC(C)c1ccn2cncc2c1C(O)[C@H]1CC[C@H](O)CC1 (single isomer, unassigned) [Example B121b, (trans)-4-(Hydroxy(7-isopropylimidazo[1,5-a]pyridin-8-yl)methyl) cyclohexan-1-ol] |
| 110 nM | 1670 nM |  |  | CC(C)c1ccn2cncc2c1[C@@H](O)[C@H]1CC[C@@H](O)CC1 (single isomer, unassigned) [Example B121c] |
| 46000 nM | > 10000 nM |  |  | CC(C)c1ccn2cncc2c1C(O)[C@H]1CC[C@@H](O)CC1 (single isomer, unassigned) [Example B121d] |
| 78 nM | 295 nM |  |  | O[C@H](c1c(C2CC2)ccn2cncc12)C1CC2CCC1C2 (single isomer, unassigned) [Example B122b] |
| 39000 nM | > 10000 nM |  |  | OC(c1c([C@H]2C[C@@H]2F)ccn2cncc12)C1CCCCC1 (single isomer, unassigned) [Example B128b, Cyclohexyl(7-((trans)-2-fluorocyclopropyl)imidazo[1,5-a]pyridin-8-yl)methanol] |
| 110000 nM | > 10000 nM |  |  | OC(c1c([C@H]2C[C@@H]2F)ccn2cncc12)C1CCCCC1 (single isomer, unassigned) [Example B128c, Cyclohexyl(7-((trans)-2-fluorocyclopropyl)imidazo[1,5-a]pyridin-8-yl)methanol] |
| 1400 nM | > 10000 nM |  |  | CS(=O)(=O)N1CCCC(C(O)c2c(C3CC3)ccn3cncc23)C1 (single isomer, unassigned) [Example B130a, (7-Cyclopropylimidazo[1,5-a]pyridin-8-yl)(1-(methylsulfonyl)piperidin-3-yl)methanol] |
| 1200 nM | 909 nM |  |  | CS(=O)(=O)N1CCCC(C(O)c2c(C3CC3)ccn3cncc23)C1 (single isomer, unassigned) [Example B130b, (7-Cyclopropylimidazo[1,5-a]pyridin-8-yl)(1-(methylsulfonyl)piperidin-3-yl)methanol] |
| 1900 nM | > 10000 nM |  |  | CC(=O)N1CCCC(C(O)c2c(C3CC3)ccn3cncc23)C1 (single isomer, unassigned) [Example B133a, 1-(3-((7-Cyclopropylimidazo[1,5-a]pyridin-8-yl)(hydroxy)methy)piperidin-1-yl)ethan-1-one] |
| 1100 nM | 6810 nM |  |  | CC(=O)N1CCCC(C(O)c2c(C3CC3)ccn3cncc23)C1 (single isomer, unassigned) [Example B133b, 1-(3-((7-Cyclopropylimidazo[1,5-a]pyridin-8-yl)(hydroxy)methy)piperidin-1-yl)ethan-1-one] |
| 1100 nM | > 10000 nM |  |  | NS(=O)(=O)N1CCCC(C(O)c2c(C3CC3)ccn3cncc23)C1 (single isomer, unassigned) [Example B135a, 3-((7-Cyclopropylimidazo[1,5-a]pyridin-8-yl)(hydroxy)methyl)piperidine-1-sulfonamide] |
| 950 nM | 1350 nM |  |  | NS(=O)(=O)N1CCCC(C(O)c2c(C3CC3)ccn3cncc23)C1 (single isomer, unassigned) [Example B135b, 3-((7-Cyclopropylimidazo[1,5-a]pyridin-8-yl)(hydroxy)methyl)piperidine-1-sulfonamide] |
| 56 nM | 79 nM |  |  | OC(c1c(C2CC2)ccn2cncc12)C1CCC(c2ccccc2)CC1 (single isomer, unassigned) [Example B143a, (S)-(7-cyclopropylimidazo[1,5-a]pyridin-8-yl)(trans or cis-4-phenylcyclohexyl)methanol] |
| 300 nM | 8660 nM |  |  | OC(c1c(C2CC2)ccn2cncc12)C1CCC(c2ccccc2)CC1 (single isomer, unassigned) [Example B143b, (S)-(7-cyclopropylimidazo[1,5-a]pyridin-8-yl)(cis or trans-4-phenylcyclohexyl)methanol] |
|  |  | 360 nM | > 10000 nM | CC(C)(C)C(O)c1cccc2cncn12 (stereo not shown) [Example A004, 1-(imidazo[1,5-a]pyridin-5-yl)-2,2-dimethylpropan-1-ol] |

| IC50 (Recombinant IDO1; [2]) | EC50 [1, 2] | IC50 (Recombinant IDO1; [3]) | EC50 [1, 3] | SMILES |
| --- | --- | --- | --- | --- |
|  |  | 1500 nM | > 10000 nM | CC(C)C(O)c1cccc2cncn12 (stereo not shown) [Example A005, 1-(imidazo[1,5-a]pyridin-5-yl)-2-methylpropan-1-ol] |
|  |  | 2400 nM | > 10000 nM | OC(c1ccc(F)cc1)c1cccc2cncn12 (stereo not shown) [Example A008, (4-fluorophenyl)(imidazo[1,5-a]pyridin-5-yl)methanol] |
|  |  | 23000 nM | > 10000 nM | CC(O)(c1cccc2cncn12)C1CCCCC1 (stereo not shown) [Example A016, 1-cyclohexyl-1-(imidazo[1,5-a]pyridin-5-yl)ethan-1-ol] |
|  |  | 1800 nM | > 10000 nM | FC(c1cc(Cl)cc2cncn12)C1CCCCC1 (stereo not shown) [Example A021, 7-chloro-5-(cyclohexylfluoromethyl)imidazo[1,5-a]pyridine] |
|  |  | 2500 nM | > 10000 nM | OC(CC1CCCCC1)c1ccc(Cl)c2cncn12 (stereo not shown) [Example A025, 1-(8-chloroimidazo[1,5-a]pyridin-5-yl)-2-cyclohexylethan-1-ol] |
|  |  | 120 nM | 1660 nM | OCC1(C(O)c2cc(Cl)cc3cncn23)CCCCC1 (stereo not shown) [Example A106, (7-chloroimidazo[1,5-a]pyridin-5-yl)(1-(hydroxymethyl)cyclohexyl)methanol] |
|  |  | 29 nM | 1570 nM | CC(C1CCCCC1)C(O)c1c(Cl)ccc2cncn12 (stereo not shown) [Example A121, 1-(6-chloroimidazo[1,5-a]pyridin-5-yl)-2-cyclohexylpropan-1-ol] |
|  |  | 25 nM | 3760 nM | OC(c1c(C2CC2)ccc2cncn12)C1CC1 (stereo not shown) [Example A137, cyclopropyl(6-cyclopropylimidazo[1,5-a]pyridin-5-yl)methanol] |
|  |  | 12 nM | 661 nM | OC1CCC([C@H](O)c2c(C3CC3)ccc3cncn23)CC1 (stereo partly drawn) [Example A142a, (1R,4s)-4-((S)-(6-cyclopropylimidazo[1,5-a]pyridin-5-yl)(hydroxy)methyl)cyclohexan-1-ol] |
|  |  | 200 nM | 2680 nM | OC(c1c(C2=CCCC2)ccc2cncn12)C1CCCCC1 (stereo not shown) [Example A157, cyclohexyl(6-(cyclopent-1-en-1-yl)imidazo[1,5-a]pyridin-5-yl)methanol] |
|  |  | 880 nM | 933 nM | OC(c1c(C2CCCC2)ccc2cncn12)C1CCCCC1 (stereo not shown) [Example A158, cyclohexyl(6-cyclopentylimidazo[1,5-a]pyridin-5-yl)methanol] |
|  |  | 5500 nM | > 10000 nM | O=C(O)c1cccc(C(O)c2c(C3CC3)ccc3cncn23)c1 (stereo not shown) [Example A159, 3-((6-cyclopropylimidazo[1,5-a]pyridin-5-yl)(hydroxy)methyl)benzoic acid] |
|  |  | 81 nM | 5610 nM | O=C(NC1CC1)c1cccc(C(O)c2c(C3CC3)ccc3cncn23)c1 (stereo not shown) [Example A160, N-cyclopropyl-3-((6-cyclopropylimidazo[1,5-a]pyridin-5-yl)(hydroxy)methyl)benzamide] |
|  |  | 57000 nM | > 10000 nM | O=C1C2CCC(C2)C1C(O)c1c(C2CC2)ccc2cncn12 (stereo not shown) [Example A161, 3-((6-cyclopropylimidazo[1,5-a]pyridin-5-yl)(hydroxy)methyl)bicyclo[2.2.1]heptan-2-one] |
|  |  | 32 nM | 34 nM | OC(c1c(C2CC2)ccc2cncn12)C1CC2CCC1C2 (stereo not shown) [Example A162, (Bicyclo[2.2.1]heptan-2-yl)(6-cyclopropylimidazo[1,5-a]pyridin-5-yl)methanol] |
|  |  | 11 nM | 8.8 nM | O[C@H](c1c(C2CC2)ccc2cncn12)C1CC2CCC1C2 (stereo partly drawn) [Example A162a, (1S)-(bicyclo[2.2.1]heptan-2-yl)(6-cyclopropylimidazo[1,5-a]pyridin-5-yl)methanol] |

Reference: patent US10280163B2 (BeiGene, Ltd., priority 2015, dated 2019)
